Test results: patent US20230107598A1, “SORGHUM DOUBLED HAPLOID […]” (PIONEER HI-BRED INTERNATIONAL, INC., priority 2020, published 2023)

Test system: haploid sorghum plants
Assay: Chromosome doubling of haploid sorghum plants by root treatment with colchicine
Assay type: in vivo
Details: colchicine 0.05%, 5 hours, roots
Description: Plants from diploid sorghum genotypes, “PHI01”, “PHI02”, “PHI03”, “PHI04”, “PHI05”, “PHI06”, “PHI07”, “PHI08”, “PHI09”, “PHI10”, “PHI11”, “PHI12”, “PHI13”, “PHI14”, “PHI15”, “PHI16”, “PHI17”, “PHI18”, “PHI19”, and “PHI20” were pollinated with pollen obtained from pearl millet line PHI01A, as described in Example 2. Immature haploid embryos were isolated, as described in Example 2, 10-20 days after pollination and embryo sizes ranged from 0.1-3 mm long. These haploid embryos were germinated on a medium (see Table 4) in the dark. The germinated haploid embryos were then transferred to fresh media for an additional 7-10 days at 21°−26° C. in the dark until germinated plantlets formed. The germinated plantlets were then transferred to a light culture room and grown at 21°−26° C. for another 2-3 weeks until healthy plantlets having good roots developed. These plantlets were then potted into soil and grown in a regular greenhouse for 5-6 weeks. Upon healthy plant establishment, the roots were treated with a chromosome doubling agent, colchicine, for 5 hours in the dark. Additional chromosome doubling agents for example, pronamide, dithipyr, oryzalin, AMP, and trifluralin, or any of the other chromosome doubling agents referenced in Table 1 can also be used. After treatment with the doubling agent, the roots were then thoroughly rinsed with running water for 30 min, to remove the residual doubling agent and then potted in soil and grown to maturity.

[1] = PHI01/2018, 15 haploid plants treated
[2] = PHI02/2018, 63 haploid plants treated
[3] = PHI02/2019, 17 haploid plants treated
[4] = PHI02/2020, 13 haploid plants treated
[5] = PHI03/2018, 20 haploid plants treated
[6] = PHI04/2018, 9 haploid plants treated
[7] = PHI05/2018, 3 haploid plants treated
[8] = PHI05/2019, 4 haploid plants treated
[9] = PHI05/2020, 1 haploid plant treated
[10] = PHI06/2018, 24 haploid plants treated
[11] = PHI07/2018, 24 haploid plants treated
[12] = PHI08/2018, 2 haploid plants treated
[13] = PHI09/2018, 8 haploid plants treated
[14] = PHI09/2019, 14 haploid plants treated
[15] = PHI09/2020, 10 haploid plants treated
[16] = PHI10/2018, 38 haploid plants treated
[17] = PHI10/2019, 36 haploid plants treated
[18] = PHI10/2020, 25 haploid plants treated
[19] = PHI11/2019, 2 haploid plants treated
[20] = PHI11/2020, 2 haploid plants treated
[21] = PHI12/2019, 8 haploid plants treated
[22] = PHI12/2020, 1 haploid plant treated
[23] = PHI13/2019, 30 haploid plants treated
[24] = PHI13/2020, 18 haploid plants treated
[25] = PHI14/2019, 53 haploid plants treated
[26] = PHI14/2020, 14 haploid plants treated
[27] = PHI15/2019, 15 haploid plants treated
[28] = PHI15/2020, 5 haploid plants treated
[29] = PHI16/2019, 27 haploid plants treated
[30] = PHI17/2020, 4 haploid plants treated
[31] = PHI18/2020, 6 haploid plants treated
[32] = PHI19/2020, 23 haploid plants treated
[33] = PHI20/2020, 9 haploid plants treated
[34] = Sum of all genotypes/years, 543 haploid plants treated

Structure (SMILES): COc1cc2c(c(OC)c1OC)-c1ccc(OC)c(=O)cc1[C@@H](NC(C)=O)CC2 [Colchicine, (S)-N-(5,6,7,9-tetrahydro-1,2,3,10-tetramethoxy-9-oxobenzo (a)heptalen-7-yl) acetamide]
- DH Success rate (%) [1]: 100%
- Number of Fully Fertile DH plants [1]: 15
- Number of plants survived after treatment [1]: 15
- DH Success rate (%) [2]: 98%
- Number of Fully Fertile DH plants [2]: 62
- Number of plants survived after treatment [2]: 62
- DH Success rate (%) [3]: 100%
- Number of Fully Fertile DH plants [3]: 17
- Number of plants survived after treatment [3]: 17
- DH Success rate (%) [4]: 100%
- Number of Fully Fertile DH plants [4]: 13
- Number of plants survived after treatment [4]: 13
- DH Success rate (%) [5]: 100%
- Number of Fully Fertile DH plants [5]: 20
- Number of plants survived after treatment [5]: 20
- DH Success rate (%) [6]: 100%
- Number of Fully Fertile DH plants [6]: 9
- Number of plants survived after treatment [6]: 9
- DH Success rate (%) [7]: 100%
- Number of Fully Fertile DH plants [7]: 3
- Number of plants survived after treatment [7]: 3
- DH Success rate (%) [8]: 100%
- Number of Fully Fertile DH plants [8]: 4
- Number of plants survived after treatment [8]: 4
- DH Success rate (%) [9]: 100%
- Number of Fully Fertile DH plants [9]: 1
- Number of plants survived after treatment [9]: 1
- DH Success rate (%) [10]: 100%
- Number of Fully Fertile DH plants [10]: 24
- Number of plants survived after treatment [10]: 24
- DH Success rate (%) [11]: 96%
- Number of Fully Fertile DH plants [11]: 23
- Number of plants survived after treatment [11]: 23
- DH Success rate (%) [12]: 100%
- Number of Fully Fertile DH plants [12]: 2
- Number of plants survived after treatment [12]: 2
- DH Success rate (%) [13]: 100%
- Number of Fully Fertile DH plants [13]: 8
- Number of plants survived after treatment [13]: 8
- DH Success rate (%) [14]: 93%
- Number of Fully Fertile DH plants [14]: 13
- Number of plants survived after treatment [14]: 14
- DH Success rate (%) [15]: 100%
- Number of Fully Fertile DH plants [15]: 10
- Number of plants survived after treatment [15]: 10
- DH Success rate (%) [16]: 100%
- Number of Fully Fertile DH plants [16]: 38
- Number of plants survived after treatment [16]: 38
- DH Success rate (%) [17]: 97%
- Number of Fully Fertile DH plants [17]: 35
- Number of plants survived after treatment [17]: 35
- DH Success rate (%) [18]: 100%
- Number of Fully Fertile DH plants [18]: 25
- Number of plants survived after treatment [18]: 25
- DH Success rate (%) [19]: 100%
- Number of Fully Fertile DH plants [19]: 2
- Number of plants survived after treatment [19]: 2
- DH Success rate (%) [20]: 100%
- Number of Fully Fertile DH plants [20]: 2
- Number of plants survived after treatment [20]: 2
- DH Success rate (%) [21]: 100%
- Number of Fully Fertile DH plants [21]: 8
- Number of plants survived after treatment [21]: 8
- DH Success rate (%) [22]: 100%
- Number of Fully Fertile DH plants [22]: 1
- Number of plants survived after treatment [22]: 1
- DH Success rate (%) [23]: 100%
- Number of Fully Fertile DH plants [23]: 30
- Number of plants survived after treatment [23]: 30
- DH Success rate (%) [24]: 100%
- Number of Fully Fertile DH plants [24]: 18
- Number of plants survived after treatment [24]: 18
- DH Success rate (%) [25]: 98%
- Number of Fully Fertile DH plants [25]: 52
- Number of plants survived after treatment [25]: 52
- DH Success rate (%) [26]: 93%
- Number of Fully Fertile DH plants [26]: 13
- Number of plants survived after treatment [26]: 13
- DH Success rate (%) [27]: 100%
- Number of Fully Fertile DH plants [27]: 15
- Number of plants survived after treatment [27]: 15
- DH Success rate (%) [28]: 100%
- Number of Fully Fertile DH plants [28]: 5
- Number of plants survived after treatment [28]: 5
- DH Success rate (%) [29]: 100%
- Number of Fully Fertile DH plants [29]: 27
- Number of plants survived after treatment [29]: 27
- DH Success rate (%) [30]: 100%
- Number of Fully Fertile DH plants [30]: 4
- Number of plants survived after treatment [30]: 4
- DH Success rate (%) [31]: 100%
- Number of Fully Fertile DH plants [31]: 6
- Number of plants survived after treatment [31]: 6
- DH Success rate (%) [32]: 100%
- Number of Fully Fertile DH plants [32]: 23
- Number of plants survived after treatment [32]: 23
- DH Success rate (%) [33]: 100%
- Number of Fully Fertile DH plants [33]: 9
- Number of plants survived after treatment [33]: 9
- DH Success rate (%) [34]: 99%
- Number of Fully Fertile DH plants [34]: 537
- Number of plants survived after treatment [34]: 538
